From patent US20260241012A1, “1,8-NAPHTHYRIDIN-2-ONE HETEROBIFUNCTIONAL BCL6 DEGRADERS” (Treeline Biosciences, Inc., priority 2022, published 2026)

Molecular target: T1, N-terminal HiBiT tagged BCL6 (Homo sapiens, UniProt P41182)
T1 construct: expressed in transfected cells; host or cells: HT1080 (ATCC CCL-121), stably transduced with lentivirus pLV-UBC-N-HiBiT-BCL6-PGK-puro
Test: HiBiT based degradation assay
Format: cell-based
Details: HT1080 cells expressing N-terminal HiBiT tagged BCL6, 5 hours of incubation; for Ymin (5 hr): BCL6 degradation normalized with DMSO control; for DC50: four-parameter logistic model, read-out: EC50 (5 hr)
Excerpt: Human BCL6 protein coding open reading frame fused with N-terminal HiBiT coding sequence was synthesized from Integrated DNA Technologies (IDT). Next, the N-HiBiT-BCL6 sequence was cloned into pLV-UBC-PGK-Puro, a lentivirus plasmid purchased from Vectorbuilder, to generate pLV-UBC-N-HiBiT-BCL6-PGK-puro. Lentiviral particles were generated from Lenti-X™ 293T cells (Clontech) by co-transfection of pLV-UBC-N-HiBiT-BCL6-PGK-puro plasmids and lentiviral packaging plasmid mix (Cellecta). HT1080 [HT1080] (ATCC CCL-121) cells were infected with the lentivirus, and HT1080 cells stably integrated with the lentiviral vectors were established by incubation with 1 μg/mL puromycin (Thermofisher).
HT1080 cells expressing N-terminal HiBiT tagged BCL6 were dispensed into a 384-well plate pre-spotted with compounds at varying concentrations. Five thousand cells were seeded into each well in 40 μL of RPMI 1640 media plus 10% Fetal Bovine Serum (10082-147, Thermofisher). After 5 hours of incubation at 37° C. with 5% CO2, 30 μL of the NANO-GLOR HiBiT Lytic Detection System working solution (Promega) was added to each well and incubated at room temperature for 15 min. After incubation, luminescence was read on a PHERAstar FSX Plate Reader (BMG). BCL6 degradation at each indicated concentration was normalized with DMSO control. The BCL6 degradation curves were plotted using a four-parameter logistic model.

Ymin (5 hr) | DC50 | SMILES
++++ (Ymin < 30%) | < 10 nM | CNC(=O)COc1cc2cc(Nc3nc(N4CC5(CC[C@H](Nc6ccc7c(C8CCC(=O)NC8=O)nn(C)c7c6)[C@H](C)C5)C4)ncc3Cl)cnc2n(C)c1=O (relative stereo) [Compound 156b, 2-((6-((5-chloro-2-((6R,7S)-7-((3-(2,6-dioxopiperidin-3-yl)-1-methyl-1H-indazol-6-yl)amino)-6-methyl-2-azaspiro[3.5]nonan-2-yl)pyrimidin-4-yl)amino)-1-methyl-2-oxo-1,2-dihydro-1,8-naphthyridin-3-yl)oxy)-N-methylacetamide]
++++ (Ymin < 30%) | < 10 nM | CNC(=O)COc1cc2cc(Nc3nc(N4CC5(CC[C@@H](Nc6ccc7c(C8CCC(=O)NC8=O)nn(C)c7c6)[C@H](C)C5)C4)ncc3Cl)cnc2n(C)c1=O (relative stereo) [Compound 156d, 2-((6-((5-chloro-2-((6R,7R)-7-((3-(2,6-dioxopiperidin-3-yl)-1-methyl-1H-indazol-6-yl)amino)-6-methyl-2-azaspiro[3.5]nonan-2-yl)pyrimidin-4-yl)amino)-1-methyl-2-oxo-1,2-dihydro-1,8-naphthyridin-3-yl)oxy)-N-methylacetamide]
+++ (30% ≤ Ymin < 50%) | < 10 nM | CNC(=O)COc1cc2cc(Nc3nc(N4CC5(CC[C@H](Nc6cccc7c(C8CCC(=O)NC8=O)nn(C)c67)[C@H](C)C5)C4)ncc3Cl)cnc2n(C)c1=O (relative stereo) [Compound 159a, 2-((6-((5-chloro-2-((6R,7S)-7-((3-(2,6-dioxopiperidin-3-yl)-1-methyl-1H-indazol-7-yl)amino)-6-methyl-2-azaspiro[3.5]nonan-2-yl)pyrimidin-4-yl)amino)-1-methyl-2-oxo-1,2-dihydro-1,8-naphthyridin-3-yl)oxy)-N-methylacetamide]
+++ (30% ≤ Ymin < 50%) | < 10 nM | CNC(=O)COc1cc2cc(Nc3nc(N4CC5(CC[C@@H](Nc6cccc7c(C8CCC(=O)NC8=O)nn(C)c67)[C@@H](C)C5)C4)ncc3Cl)cnc2n(C)c1=O (relative stereo) [Compound 159b, 2-((6-((5-chloro-2-((6S,7R)-7-((3-(2,6-dioxopiperidin-3-yl)-1-methyl-1H-indazol-7-yl)amino)-6-methyl-2-azaspiro[3.5]nonan-2-yl)pyrimidin-4-yl)amino)-1-methyl-2-oxo-1,2-dihydro-1,8-naphthyridin-3-yl)oxy)-N-methylacetamide]
+++ (30% ≤ Ymin < 50%) | 10 to 100 nM | CNC(=O)COc1cc2cc(Nc3nc(N4CC5(CC[C@@H](Nc6ccc7c(C8CCC(=O)NC8=O)nn(C)c7c6)[C@@H](C)C5)C4)ncc3Cl)cnc2n(C(C)C)c1=O (relative stereo) [Compound 180a, rel-2-((6-((5-chloro-2-((6S,7R)-7-((3-(2,6-dioxopiperidin-3-yl)-1-methyl-1H-indazol-6-yl)amino)-6-methyl-2-azaspiro[3.5]nonan-2-yl)pyrimidin-4-yl)amino)-1-isopropyl-2-oxo-1,2-dihydro-1,8-naphthyridin-3-yl)oxy)-N-methylacetamide]
+++ (30% ≤ Ymin < 50%) | < 10 nM | CNC(=O)COc1cc2cc(Nc3nc(N4CC5(CC[C@H](Nc6ccc7c(C8CCC(=O)NC8=O)nn(C)c7c6)[C@H](C)C5)C4)ncc3Cl)cnc2n(C(C)C)c1=O (relative stereo) [Compound 180b, rel-2-((6-((5-chloro-2-((6R,7S)-7-((3-(2,6-dioxopiperidin-3-yl)-1-methyl-1H-indazol-6-yl)amino)-6-methyl-2-azaspiro[3.5]nonan-2-yl)pyrimidin-4-yl)amino)-1-isopropyl-2-oxo-1,2-dihydro-1,8-naphthyridin-3-yl)oxy)-N-methylacetamide]
++++ (Ymin < 30%) | < 10 nM | CNC(=O)COc1cc2cc(Nc3nc(N4CC5(CC[C@H](Nc6ccc7c(C8CCC(=O)NC8=O)nn(C)c7c6)[C@@H](C)C5)C4)ncc3Cl)cnc2n(C(C)C)c1=O (relative stereo) [Compound 180c, rel-2-((6-((5-chloro-2-((6S,7S)-7-((3-(2,6-dioxopiperidin-3-yl)-1-methyl-1H-indazol-6-yl)amino)-6-methyl-2-azaspiro[3.5]nonan-2-yl)pyrimidin-4-yl)amino)-1-isopropyl-2-oxo-1,2-dihydro-1,8-naphthyridin-3-yl)oxy)-N-methylacetamide]
++++ (Ymin < 30%) | < 10 nM | CNC(=O)COc1cc2cc(Nc3nc(N4CC5(CC[C@@H](Nc6ccc7c(C8CCC(=O)NC8=O)nn(C)c7c6)[C@H](C)C5)C4)ncc3Cl)cnc2n(C(C)C)c1=O (relative stereo) [Compound 180d, rel-2-((6-((5-chloro-2-((6R,7R)-7-((3-(2,6-dioxopiperidin-3-yl)-1-methyl-1H-indazol-6-yl)amino)-6-methyl-2-azaspiro[3.5]nonan-2-yl)pyrimidin-4-yl)amino)-1-isopropyl-2-oxo-1,2-dihydro-1,8-naphthyridin-3-yl)oxy)-N-methylacetamide]
++++ (Ymin < 30%) | < 10 nM | CNC(=O)COc1cc2cc(Nc3nc(N4CC5(CC[C@@H](Oc6ccc7c(C8CCC(=O)NC8=O)nn(C)c7c6)[C@@H](C)C5)C4)ncc3Cl)cnc2n(C(C)C)c1=O (relative stereo) [Compound 185b, 2-[[6-[[5-chloro-2-[(6S,7R)-7-[3-(2,6-dioxo-3-piperidyl)-1-methyl-indazol-6-yl]oxy-6-methyl-2-azaspiro[3.5]nonan-2-yl]pyrimidin-4-yl]amino]-1-isopropyl-2-oxo-1,8-naphthyridin-3-yl]oxy]-N-methyl-acetamide]
++++ (Ymin < 30%) | < 10 nM | CNC(=O)COc1cc2cc(Nc3nc(N4CC5(CC[C@H](Oc6ccc7c(C8CCC(=O)NC8=O)nn(C)c7c6)[C@@H](C)C5)C4)ncc3Cl)cnc2n(C(C)C)c1=O (relative stereo) [Compound 185c, 2-[[6-[[5-chloro-2-[(6S,7S)-7-[3-(2,6-dioxo-3-piperidyl)-1-methyl-indazol-6-yl]oxy-6-methyl-2-azaspiro[3.5]nonan-2-yl]pyrimidin-4-yl]amino]-1-isopropyl-2-oxo-1,8-naphthyridin-3-yl]oxy]-N-methyl-acetamide]
++++ (Ymin < 30%) | < 10 nM | CNC(=O)COc1cc2cc(Nc3nc(N4CC5(CC[C@@H](Oc6ccc7c(C8CCC(=O)NC8=O)nn(C)c7c6)[C@H](C)C5)C4)ncc3Cl)cnc2n(C(C)C)c1=O (relative stereo) [Compound 185d, 2-[[6-[[5-chloro-2-[(6R,7R)-7-[3-(2,6-dioxo-3-piperidyl)-1-methyl-indazol-6-yl]oxy-6-methyl-2-azaspiro[3.5]nonan-2-yl]pyrimidin-4-yl]amino]-1-isopropyl-2-oxo-1,8-naphthyridin-3-yl]oxy]-N-methyl-acetamide]
++++ (Ymin < 30%) | < 10 nM | CNC(=O)COc1cc2cc(Nc3nc(N4CC5(CC[C@@H](Nc6ccc7c(C8CCC(=O)NC8=O)nn(C)c7c6)[C@@H](C(F)(F)F)C5)C4)ncc3Cl)cnc2n(C(C)C)c1=O (relative stereo) [Compound 221a, 2-((6-((5-chloro-2-((6S,7R)-7-((3-(2,6-dioxopiperidin-3-yl)-1-methyl-1H-indazol-6-yl)amino)-6-(trifluoromethyl)-2-azaspiro[3.5]nonan-2-yl)pyrimidin-4-yl)amino)-1-isopropyl-2-oxo-1,2-dihydro-1,8-naphthyridin-3-yl)oxy)-N-methylacetamide]
++++ (Ymin < 30%) | < 10 nM | CNC(=O)COc1cc2cc(Nc3nc(N4CC5(CC[C@H](Nc6ccc7c(C8CCC(=O)NC8=O)nn(C)c7c6)[C@@H](C(F)(F)F)C5)C4)ncc3Cl)cnc2n(C(C)C)c1=O (relative stereo) [Compound 221b, rel-2-((6-((5-chloro-2-((6S,7S)-7-((3-(2,6-dioxopiperidin-3-yl)-1-methyl-1H-indazol-6-yl)amino)-6-(trifluoromethyl)-2-azaspiro[3.5]nonan-2-yl)pyrimidin-4-yl)amino)-1-isopropyl-2-oxo-1,2-dihydro-1,8-naphthyridin-3-yl)oxy)-N-methylacetamide]
++++ (Ymin < 30%) | 10 to 100 nM | CNC(=O)COc1cc2cc(Nc3nc(N4CC[C@@H](CN5CCN(c6cccc7c(C8CCC(=O)NC8=O)nn(C)c67)CC5)[C@H](F)C4)ncc3Cl)cnc2n(C(C)C)c1=O (relative stereo) [Compound 238a, 2-((6-((5-chloro-2-((3S,4S)-4-((4-(3-(2,6-dioxopiperidin-3-yl)-1-methyl-1H-indazol-7-yl)piperazin-1-yl)methyl)-3-fluoropiperidin-1-yl)pyrimidin-4-yl)amino)-1-isopropyl-2-oxo-1,2-dihydro-1,8-naphthyridin-3-yl)oxy)-N-methylacetamide]
